{"source": "patent US12324827B2", "about": "“Combination therapy for the treatment of migraines” (The University of Chicago, priority 2019, dated 2025)", "key": {"[1]": {"system": "trigeminal ganglion CGRP", "test": "CGRP immunostaining of trigeminal ganglion after recurrent spreading depression", "type": "in vivo, rat", "conditions": "n=5/group", "method": "N2B delivery of 150 μg human recombinant IGF-1 (#191-G1; R&D Systems, Minneapolis, MN) in 50 μL sodium succinate buffer followed the previously described approach (21,51) that was based on the techniques of Liu and coworkers (24) in the recording laboratory under isoflurane anesthesia with spontaneous ventilation.\nInduction of recurrent SD followed previously published aseptic techniques from the inventors' laboratory (8, 13, 21, 25, 26, 51) (FIG. 4). […]\nImaging was performed using a Photometrics self-calibrating digital camera QuantEM-512SC camera (500×500 pixels; Photometrics, Tucson, AZ) run on MetaMorph software (v. 7.0.4; Molecular Devices, Sunnyvale, CA) under blinded conditions (as previously described (13, 20-22). Image exposure, camera gain and thresholding were uniformly set (i.e., equivalently for experimental and sham groups for each imaging metric (i.e., MDA, CGRP and c-fos). Resultant images were digitally stored as TIFF files for subsequent analyses that continued under blinded conditions where image integrated fluorescence intensity was registered using MetaMorph software for MDA and CGRP.\nImages of MDA and CGRP were analyzed while blinded and later decoded to ratios of experimental/sham image integrated optical intensity, a sensitive metric that not only accounts for the area but also the pixel intensity of related image fluorescence. […]"}, "[2]": {"system": "trigeminocervical complex c-fos", "test": "Trigeminocervical c-fos immunostaining after recurrent CSD, nasal IGF-1 with or without intravenous anti-CGRP antibody (Example 5)", "type": "in vivo, rat", "method": "Migraine will be modeled using recurrent CSD (Grinberg et al., 2019; Won and Kraig 2019a,b; Won and Kraig, 2020). Briefly, the day before recurrent CSD, animals are anesthetized with inhalational isoflurane in oxygen (2-5%) and treated with intranasal IGF-1 (150 μg in 50 μl succinate buffer).\nAnesthetized animals are then transferred to a standard stereotaxic head holder under 2-5% isoflurane inhalational anesthesia. Eyes are coated with Artificial Tears and head shaved, cleansed with Betadine, and 0.1 mL of 0.25% Bupivacaine is injected subcutaneously to either side of what will be a left of midline head incision made five minutes later. The underlying skull is scraped free of soft tissue and hemostasis achieved with bone wax. Two 1-2 mm craniotomies are drilled with a Dremel tool at +3 mm anterior to bregma and two mm lateral to the midline (for 0.5M KCl 10-30 nL pressure injections used to initiate CSD. A second craniotomy is placed six mm caudal to bregma and 4.5 mm lateral to the midline (for recording CSD. The surgery area is wiped with Betadine and incision closed with three wound clips. Animals are allowed to awaken and then returned to overnight standard Animal Facility Housing.\nThe next day (i.e., 20-24 hours later) animals are again be anesthetized as above with inhalational isoflurane and the left femoral vein cannulated for antibody infusion. Select groups of animals (see below) are treated with intravenous infusion either 1 mg/kg anti-CGRP (ab81887) or isotype IgG2a control in 0.5-0.6 ml normal saline. After infusions, the femoral incision is closed with wound clips.\nAnimals are stabilized for an hour under anesthesia (1.5% isoflurane in oxygen) after head sutures are removed, eyes coated with Artificial Tears and animals made ready for initiation and recording of CSD under deeper (5%) isoflurane in oxygen, which is then lowered back to 1.5% isoflurane in oxygen during CSD recordings. CSD is initiated as described above one to four hours after antibody infusion. All animals receive nine KCl injections. Then, isoflurane is raised to 5% and animals anesthetized with intraperitoneal ketamine and Xylazine followed quickly by euthanasia via intra-cardiac perfusion with 0.1 mL heparin (1,000 units/ml), then 250 ml of normal saline and finally 250 ml 4% paraformaldehyde in 0.2 M phosphate buffer. […]\n2. […] All animals for nasal delivery of IGF-1 plus intravenous treatment (i.e., one ml saline or anti-CGRP antibody) followed by 90 minutes of evoked CSDs) were analyzed for trigeminal cervical complex c-fos immunostaining and trigeminal ganglion malondialdehyde immunostaining as previously described (Won and Kraig, 2020). […]"}, "[3]": {"system": "rat hippocampal brain slice cultures", "conditions": "cited from earlier work"}}, "data": [{"substance": "IGF-1: human recombinant IGF-1 (#191-G1; R&D Systems), 150 μg in 50 μL sodium succinate buffer, delivered nose-to-brain", "values": [{"measurement": "log-ratio (IGF-1/sham) of CGRP immunostaining after recurrent CSD", "setting": "[1]", "value": "−0.90±0.15"}, {"measurement": "reduction in trigeminocervical c-fos activation from recurrent CSD", "setting": "[2]; counts from −4.5 and 6.0 mm caudal to the obex", "value": 45, "unit": "%"}, {"measurement": "ln ratio (IGF-1/sham) of trigeminocervical c-fos", "setting": "[2]; nasal IGF-1 alone, original Won and Kraig 2020 data, n=5", "value": "−0.56±0.08"}, {"measurement": "ln ratio (IGF-1/sham) of trigeminocervical c-fos", "setting": "[2]; nasal IGF-1 plus intravenous saline a day later, new data, n=3", "value": "−0.548±0.16"}, {"measurement": "ln ratio of trigeminocervical c-fos, combined groups", "setting": "[2]; nasal IGF-1 with or without subsequent intravenous saline, n=10", "value": "−0.547±0.11"}, {"measurement": "oxidative stress from menadione exposure", "setting": "[3]; brain slice cultures in vitro", "value": "significantly reduced"}, {"measurement": "spreading depression in slice cultures", "setting": "[3]; rat hippocampal brain slice cultures", "value": "significantly inhibited spreading depression"}]}]}
